PubChem BioAssay AID256 (DTP/NCI, 2004)
Several values for one entry are separate records, joined by “and”; a condition that tells them apart may be missing. Equal entries are not always repeated. Toxic doses and inconclusive results are not listed. How the source made its calls: active means survival T/C of 150% or more; inactive means T/C below 125% in these data.

System: CD2F1 mice, L1210 leukemia ip, survival T/C
Assay: NCI In Vivo Anticancer Drug Screen. Data for tumor model L1210 Leukemia (intraperitoneal) in CD2F1 (CDF1) mice
Conditions: higher = longer survival
Procedure, shortened: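 Each value reflects a quotient of treated over vehicle control outcomes in mice with a transplanted tumor.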

[1] = endpoint: mean survival time, dose: 100.0 mg/kg/injection, schedule: Q04DX003 (ip), vehicle: saline
[2] = endpoint: mean survival time, dose: 200.0 mg/kg/injection, schedule: Q04DX003 (ip), vehicle: saline
[3] = endpoint: mean survival time, dose: 400.0 mg/kg/injection, schedule: Q04DX003 (ip), vehicle: saline
[4] = endpoint: mean survival time, dose: 100.0 mg/kg/injection, schedule: Q01DX009 (ip), vehicle: saline with Tween-80
[5] = endpoint: mean survival time, dose: 200.0 mg/kg/injection, schedule: Q01DX009 (ip), vehicle: saline with Tween-80

Measured: T/C

O=C(/C=C\c1ccc(Cl)c(Cl)c1)/C=C/c1ccc(Cl)c(Cl)c1
inactive: endpoint: mean survival time, dose: 25.0 mg/kg/injection, schedule: Q04DX002 (ip), vehicle: saline with Tween-80 95 % of control | endpoint: mean survival time, dose: 50.0 mg/kg/injection, schedule: Q04DX002 (ip), vehicle: saline with Tween-80 87 % of control | endpoint: mean survival time, dose: 100.0 mg/kg/injection, schedule: Q04DX002 (ip), vehicle: saline with Tween-80 106 % of control

O=C(O)C1(O)C[C@@H](O)C(O)[C@H](O)C1 (some centres not stated)
inactive: endpoint: mean survival time, dose: 100.0 mg/kg/injection, schedule: Q01DX001 (ip), vehicle: saline 102 % of control | [1] 108 % of control | endpoint: mean survival time, dose: 200.0 mg/kg/injection, schedule: Q01DX001 (ip), vehicle: saline 96 % of control | [2] 98 % of control | endpoint: mean survival time, dose: 400.0 mg/kg/injection, schedule: Q01DX001 (ip), vehicle: saline 100 % of control | [3] 102 % of control

CC1(C)OC2C(COC(=O)Oc3ccccc3)OC(n3cnc4c(=O)[nH]c(N)nc43)C2O1 (configuration not stated)
inactive: endpoint: mean survival time, dose: 100.0 mg/kg/injection, schedule: Q01DX001 (ip), vehicle: Klucel (hydroxypropylcellulose) (HPC) 92 % of control | endpoint: mean survival time, dose: 200.0 mg/kg/injection, schedule: Q01DX001 (ip), vehicle: Klucel (hydroxypropylcellulose) (HPC) 93 % of control | endpoint: mean survival time, dose: 400.0 mg/kg/injection, schedule: Q01DX001 (ip), vehicle: Klucel (hydroxypropylcellulose) (HPC) 92 % of control

O=C(O)C(O)C(O)C(O)C(O)C(O)CO (configuration not stated)
inactive: endpoint: mean survival time, dose: 100.0 mg/kg/injection, schedule: Q01DX009 (ip), vehicle: saline 98 % of control | endpoint: mean survival time, dose: 200.0 mg/kg/injection, schedule: Q01DX009 (ip), vehicle: saline 98 % of control | endpoint: mean survival time, dose: 400.0 mg/kg/injection, schedule: Q01DX009 (ip), vehicle: saline 97 % of control

CC1(C)OC1C(=O)O (configuration not stated)
inactive: [1] 106 % of control | [2] 96 % of control | [3] 98 % of control

CCOC(=O)C1C(=O)NCC1c1ccccc1 (configuration not stated)
inactive: endpoint: mean survival time, dose: 50.0 mg/kg/injection, schedule: Q01DX009 (ip), vehicle: saline with Tween-80 106 % of control | [4] 101 % of control | [5] 101 % of control

c1ccc2c(c1)Cc1c-2nc2ccccc2c1N1CCOCC1
inactive: endpoint: mean survival time, dose: 100.0 mg/kg/injection, schedule: Q01DX001 (ip), vehicle: saline with Tween-80 94 % of control | [4] 97 % of control | endpoint: mean survival time, dose: 200.0 mg/kg/injection, schedule: Q01DX001 (ip), vehicle: saline with Tween-80 100 % of control | [5] 106 % of control | endpoint: mean survival time, dose: 400.0 mg/kg/injection, schedule: Q01DX001 (ip), vehicle: saline with Tween-80 92 % of control

O=S(=O)(SC(S(=O)(=O)c1ccccc1)S(=O)(=O)c1ccccc1)c1ccccc1
inactive: endpoint: mean survival time, dose: 12.5 mg/kg/injection, schedule: Q01DX009 (ip), vehicle: Klucel (hydroxypropylcellulose) (HPC) 94 % of control and 105 % of control | endpoint: mean survival time, dose: 25.0 mg/kg/injection, schedule: Q01DX009 (ip), vehicle: Klucel (hydroxypropylcellulose) (HPC) 97 % of control and 110 % of control | endpoint: mean survival time, dose: 50.0 mg/kg/injection, schedule: Q01DX009 (ip), vehicle: Klucel (hydroxypropylcellulose) (HPC) 98 % of control and 102 % of control | endpoint: mean survival time, dose: 100.0 mg/kg/injection, schedule: Q01DX009 (ip), vehicle: Klucel (hydroxypropylcellulose) (HPC) 96 % of control | endpoint: mean survival time, dose: 200.0 mg/kg/injection, schedule: Q01DX009 (ip), vehicle: Klucel (hydroxypropylcellulose) (HPC) 92 % of control and 104 % of control | endpoint: mean survival time, dose: 400.0 mg/kg/injection, schedule: Q01DX009 (ip), vehicle: Klucel (hydroxypropylcellulose) (HPC) 113 % of control and 94 % of control | endpoint: median survival time, dose: 100.0 mg/kg/injection, schedule: Q01DX009 (ip), vehicle: Klucel (hydroxypropylcellulose) (HPC) 103 % of control | endpoint: median survival time, dose: 200.0 mg/kg/injection, schedule: Q01DX009 (ip), vehicle: Klucel (hydroxypropylcellulose) (HPC) 102 % of control | endpoint: median survival time, dose: 400.0 mg/kg/injection, schedule: Q01DX009 (ip), vehicle: Klucel (hydroxypropylcellulose) (HPC) 102 % of control | endpoint: median survival time, dose: 800.0 mg/kg/injection, schedule: Q01DX009 (ip), vehicle: Klucel (hydroxypropylcellulose) (HPC) 92 % of control

O=C(O)CS(=O)(=O)O
inactive: endpoint: mean survival time, dose: 50.0 mg/kg/injection, schedule: Q04DX002 (ip), vehicle: saline 100 % of control | endpoint: mean survival time, dose: 100.0 mg/kg/injection, schedule: Q04DX002 (ip), vehicle: saline 100 % of control | endpoint: mean survival time, dose: 200.0 mg/kg/injection, schedule: Q04DX002 (ip), vehicle: saline 100 % of control

CCCCCCCCCCCC(CCCC)CCCCCCCCCC (configuration not stated)
inactive: endpoint: mean survival time, dose: 100.0 mg/kg/injection, schedule: Q01DX001 (ip), vehicle: saline sonified 96 % of control | endpoint: mean survival time, dose: 200.0 mg/kg/injection, schedule: Q01DX001 (ip), vehicle: saline sonified 102 % of control | endpoint: mean survival time, dose: 400.0 mg/kg/injection, schedule: Q01DX001 (ip), vehicle: saline sonified 108 % of control
